Here are results for 20 compounds from patent publication US20090137572A1, “2-substituted-4-heteroaryl-pyrimidines useful for the treatment of proliferative disorders” (priority 2004, published 2009).

What all share (format): biochemical
Assay [1] addresses CDK9/cyclin T1 (Homo sapiens, UniProt P50750). The experiment in a line: CDK 9 assay (CTD peptide substrate). Conditions: read-out: Kinase Inhibition pIC50 CDK9-cyclin T1 (converted). The protocol:
(§1) Kinase assays. The compounds of the invention above were investigated for their ability to inhibit the enzymatic activity of various protein kinases (Table 2). This was achieved by measurement of incorporation of radioactive phosphate from ATP into appropriate polypeptide substrates. Recombinant protein kinases and kinase complexes were produced or obtained commercially. Assays were performed using 96-well plates and appropriate assay buffers (typically 25 mM β-glycerophosphate, 20 mM MOPS, 5 mM EGTA, 1 mM DTT, 1 mM […], pH 7.4), into which were added 2-4 μg of active enzyme with appropriate substrates. The reactions were initiated by addition of Mg/ATP mix (15 mM MgCl2+100 μM ATP with 30-50 kBq per well of [γ-^32P]-ATP) and mixtures incubated as required at 30° C. Reactions were stopped on ice, followed by filtration through p81 filterplates or GF/C filterplates (Whatman Polyfiltronics, Kent, UK). After washing 3 times with 75 mM aq orthophosphoric acid, plates were dried, scintillant added and incorporated radioactivity measured in a scintillation counter (TopCount, Packard Instruments, Pangbourne, Berks, UK). Compounds for kinase assay were made up as 10 mM stocks in DMSO and diluted into 10% DMSO in assay buffer.
(§2) CDK 7 and 9 assays. CTD peptide substrate (biotinyl-Abx-(Tyr-Ser-Pro-Thr-Ser-Pro-Ser)4-NH2; 1-2 mg/mL) and recombinant human CDK7/cyclin H, CDK9/cyclin T1, or CDK9/cyclin K (0.5-2 μg) were incubated for 45 min at 30° C. in the presence of varying amounts of test compound in 20 mM MOPS pH 7.2, 25 mM β-glycerophosphate, 5 mM EGTA, 1 mM DTT, 1 mM sodium vanadate, 15 mM MgCl2, and 100 μM ATP (containing a trace amount of ^32PγATP) in a total volume of 25 μL in a 96-well microtiter plate. The reaction was stopped by placing the plate on ice for 2 min. Avidin (50 μg) was added to each well, and the plate was incubated at room temp for 30 min. The samples were transferred to a 96-well P81 filter plate, and washed (4×200 μL per well) with 75 mM phosphoric acid. Microscint 40 scintillation liquid (50 μL) was added to each well, and the amount of ^32P incorporation for each sample was measured using a Packard Topcount microplate scintillation counter.

Assay [2] has as its target T1, Aurora A kinase (Homo sapiens, UniProt O14965).
T1 construct: purchased
T1 sequence (O14965 1-403): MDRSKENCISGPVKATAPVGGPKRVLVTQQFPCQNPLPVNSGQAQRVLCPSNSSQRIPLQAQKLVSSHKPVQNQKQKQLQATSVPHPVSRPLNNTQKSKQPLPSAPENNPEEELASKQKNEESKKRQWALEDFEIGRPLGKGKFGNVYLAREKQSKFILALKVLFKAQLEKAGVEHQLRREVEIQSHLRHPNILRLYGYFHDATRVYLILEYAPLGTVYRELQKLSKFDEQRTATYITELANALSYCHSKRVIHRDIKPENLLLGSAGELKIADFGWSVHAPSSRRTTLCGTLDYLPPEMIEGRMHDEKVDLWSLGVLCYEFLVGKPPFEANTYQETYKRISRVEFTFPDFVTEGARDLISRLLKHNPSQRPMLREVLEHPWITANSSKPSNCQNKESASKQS
Briefly: Aurora-A (human) kinase assay (Kemptide substrate). Conditions: pIC50 is -log(IC50, M); 15 μM ATP; read-out: Kinase Inhibition pIC50 Aurora A kinase (converted). As for the experimental part: Aurora-A (human) kinase assay. This was achieved by measurement of incorporation of radioactive phosphate from ATP into Kemptide substrate (LRRASLG), upon phosphorylation by commercially obtained aurora-A kinase. Assays were performed using 96-well plates and appropriate assay buffers (8 mM MOPS, 0.2 mM EDTA, pH 7.0), into which were added 5-10 ng of active enzyme with 200 μM substrate (Kemptide). The reactions were initiated by addition of Mg/ATP mix (10 mM MgAcetate+15 μM ATP with 30-50 kBq per well of [γ-^33P]-ATP) and mixtures incubated for 40 min at room temperature. Reactions were stopped by addition of 3% phosphoric acid, followed by filtration through p81 filterplates (Whatman Polyfiltronics, Kent, UK). After washing 5 times with 75 mM aq orthophosphoric acid and once in methanol, plates were dried, scintillant added and incorporated radioactivity measured in a scintillation counter (TopCount, Packard Instruments, Pangbourne, Berks, UK). Compounds for kinase assay were made up as 10 mM stocks in DMSO and diluted into 10% DMSO in assay buffer.

Assay [3] has as its target CDK7/cyclin H (Homo sapiens, UniProt P50613). The experiment in a line: CDK 7 assay (CTD peptide substrate). Conditions: read-out: Kinase Inhibition pIC50 CDK7-cyclin H (converted). The protocol: as §1, §2
The target in assay [4] is CDK2-cycline E (Homo sapiens, UniProt P24941). The experiment in a line: Kinase assay (radioactive phosphate incorporation), CDK2-cyclin E. To be noted: read-out: Kinase Inhibition pIC50 CDK2-cycline E (converted). The protocol:
as §1

Chain of CDK9/cyclin T1 (P50750 whole entry): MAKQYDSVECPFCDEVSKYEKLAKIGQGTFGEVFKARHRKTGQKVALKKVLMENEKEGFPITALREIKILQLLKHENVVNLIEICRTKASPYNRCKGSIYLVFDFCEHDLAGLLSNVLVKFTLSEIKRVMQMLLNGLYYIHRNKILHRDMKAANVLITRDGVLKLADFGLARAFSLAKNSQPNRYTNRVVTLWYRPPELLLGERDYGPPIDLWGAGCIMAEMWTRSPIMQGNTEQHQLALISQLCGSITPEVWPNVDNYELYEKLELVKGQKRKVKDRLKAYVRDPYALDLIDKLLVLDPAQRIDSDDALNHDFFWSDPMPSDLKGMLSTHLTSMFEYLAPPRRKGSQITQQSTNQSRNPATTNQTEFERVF
Chain of CDK9/cyclin T1 (O60563 whole entry partner): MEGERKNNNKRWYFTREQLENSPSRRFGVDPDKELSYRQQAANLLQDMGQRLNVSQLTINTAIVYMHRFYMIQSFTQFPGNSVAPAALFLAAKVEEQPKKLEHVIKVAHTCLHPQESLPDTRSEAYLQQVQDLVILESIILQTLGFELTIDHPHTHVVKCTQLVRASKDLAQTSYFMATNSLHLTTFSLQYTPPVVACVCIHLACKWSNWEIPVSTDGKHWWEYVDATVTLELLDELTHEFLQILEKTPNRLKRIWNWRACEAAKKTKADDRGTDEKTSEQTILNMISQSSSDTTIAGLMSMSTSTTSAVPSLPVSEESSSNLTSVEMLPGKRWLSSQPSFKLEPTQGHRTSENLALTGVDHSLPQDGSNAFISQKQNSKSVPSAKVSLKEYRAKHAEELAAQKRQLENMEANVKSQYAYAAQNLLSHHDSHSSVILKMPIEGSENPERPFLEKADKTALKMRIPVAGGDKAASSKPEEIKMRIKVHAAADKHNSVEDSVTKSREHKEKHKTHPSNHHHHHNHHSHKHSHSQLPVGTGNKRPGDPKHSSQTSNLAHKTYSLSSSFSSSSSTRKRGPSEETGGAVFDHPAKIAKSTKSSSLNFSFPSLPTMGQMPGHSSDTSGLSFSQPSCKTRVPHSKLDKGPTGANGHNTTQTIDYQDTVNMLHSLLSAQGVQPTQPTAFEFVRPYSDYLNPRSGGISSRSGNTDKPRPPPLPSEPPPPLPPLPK
Chain of CDK7/cyclin H (P50613 whole entry): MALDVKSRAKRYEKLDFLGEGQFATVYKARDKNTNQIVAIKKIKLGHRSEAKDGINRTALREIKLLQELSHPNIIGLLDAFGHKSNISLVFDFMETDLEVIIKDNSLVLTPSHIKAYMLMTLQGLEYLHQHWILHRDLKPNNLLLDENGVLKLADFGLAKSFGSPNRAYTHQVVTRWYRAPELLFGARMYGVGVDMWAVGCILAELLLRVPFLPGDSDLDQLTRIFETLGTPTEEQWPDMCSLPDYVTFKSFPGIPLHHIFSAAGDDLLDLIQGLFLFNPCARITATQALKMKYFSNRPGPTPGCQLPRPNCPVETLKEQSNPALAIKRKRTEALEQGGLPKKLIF
Chain of CDK7/cyclin H (P51946 whole entry partner): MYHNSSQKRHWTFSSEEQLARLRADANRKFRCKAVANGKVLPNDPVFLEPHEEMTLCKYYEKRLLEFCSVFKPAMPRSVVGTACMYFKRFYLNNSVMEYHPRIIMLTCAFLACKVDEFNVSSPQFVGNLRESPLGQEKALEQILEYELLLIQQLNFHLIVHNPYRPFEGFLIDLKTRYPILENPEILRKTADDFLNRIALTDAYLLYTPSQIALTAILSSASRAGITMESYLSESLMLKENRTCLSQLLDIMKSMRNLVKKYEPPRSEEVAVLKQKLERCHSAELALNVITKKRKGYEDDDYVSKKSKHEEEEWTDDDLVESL

Turning to `CNc1nc(C)c(-c2ccnc(Nc3cccc(S(=O)(=O)Nc4cccc(OC)c4)c3)n2)s1` [Compound 32, N-(3-Methoxy-phenyl)-3-[4-(4-methyl-2-methylamino-thiazol-5-yl)-pyrimidin-2-ylamino]-benzenesulfonamide], the IC50 was 2510 nM in assay [1], 12.6 nM in assay [2] and 5010 nM in assay [3].
Regarding `CCNc1nc(C)c(-c2ccnc(Nc3cccc(Br)c3)n2)s1` [Compound 50, (3-Bromo-phenyl)-[4-(2-ethylamino-4-methyl-thiazol-5-yl)-pyrimidin-2-yl]-amine], the IC50 in assay [1] was 200 nM; in assay [2] it was 20 nM.
For `Cc1nc(C)c(-c2ccnc(Nc3ccc(N4CCN(Cc5ccccc5)CC4)cc3)n2)s1` [Compound 114, [4-(4-Benzyl-piperazin-1-yl)-phenyl]-[4-(2,4-dimethyl-thiazol-5-yl)-pyrimidin-2-yl]-amine], the IC50 is 1580 nM in assay [1], 316 nM in assay [2], 1260 nM in assay [4] and 126 nM in assay [3].
As to `CCN(C)c1nc(C)c(-c2ccnc(Nc3ccc(N4CCOCC4)cc3)n2)s1` [Compound 120, {4-[2-(Ethyl-methyl-amino)-4-methyl-thiazol-5-yl]-pyrimidin-2-yl}-(4-morpholin-4-yl-phenyl)-amine], the IC50 in assay [1] was 2000 nM; in assay [2] it was 31.6 nM; in assay [4] it was 794 nM; in assay [3], 3160 nM.
Turning to `CC(=O)N1CCN(c2ccc(Nc3nccc(-c4sc(N(C)Cc5ccccc5)nc4C)n3)cc2)CC1` [Compound 122, 1-[4-(4-{4-[2-(Benzyl-methyl-amino)-4-methyl-thiazol-5-yl]-pyrimidin-2-ylamino}-phenyl)-piperazin-1-yl]-ethanone], the IC50 is 1260 nM in assay [1], 200 nM in assay [2], 2000 nM in assay [4] and 1580 nM in assay [3].
As to `COc1cc(Nc2nccc(-c3sc(C)nc3C)n2)ccc1N1CCOCC1` [Compound 173, [4-(2,4-Dimethyl-thiazol-5-yl)-pyrimidin-2-yl]-(3-methoxy-4-morpholin-4-yl-phenyl)-amine], the IC50 in assay [1] was 3160 nM; in assay [2], 39.8 nM; in assay [4], 794 nM; in assay [3], 3160 nM.
For `CCNc1nc(C)c(-c2ccnc(Nc3ccc4c(c3)OCCO4)n2)s1` [Compound 181, (2,3-Dihydro-benzo[1,4]dioxin-6-yl)-[4-(2-ethylamino-4-methyl-thiazol-5-yl)-pyrimidin-2-yl]-amine], the IC50 in assay [2] was 200 nM; in assay [4], 501 nM.
In the case of `COc1cc(Nc2nccc(-c3sc(N)nc3C)n2)ccc1N1CCOCC1` [Compound 182, [4-(2-Amino-4-methyl-thiazol-5-yl)-pyrimidin-2-yl]-(3-methoxy-4-morpholin-4-yl-phenyl)-amine], the IC50 in assay [1] was 1000 nM; in assay [2] it was 39.8 nM; in assay [4] it was 794 nM; in assay [3], 2510 nM.
As for `CNc1nc(C)c(-c2ccnc(Nc3ccc(OC)c(C)c3)n2)s1` [Compound 184, (4-Methoxy-3-methyl-phenyl)-[4-(4-methyl-2-methylamino-thiazol-5-yl)-pyrimidin-2-yl]-amine], the figures for the IC50 in assay [2] and in assay [4] were 63.1 nM and 126 nM, respectively.
For `COc1ccc(Nc2nccc(-c3sc(N)nc3C)n2)cc1C` [Compound 185, [4-(2-Amino-4-methyl-thiazol-5-yl)-pyrimidin-2-yl]-(4-methoxy-3-methyl-phenyl)-amine], in that order: 39.8 nM and 251 nM.
As to `CCNc1nc(C)c(-c2ccnc(Nc3ccc(OC)c(C)c3)n2)s1` [Compound 187, [4-(2-Ethylamino-4-methyl-thiazol-5-yl)-pyrimidin-2-yl]-(4-methoxy-3-methyl-phenyl)-amine], the figures for the IC50 in assay [2] and in assay [4] were 100 nM and 794 nM, respectively.
With `Cc1nc(CO)sc1-c1ccnc(Nc2ccc(N3CCOCC3)cc2)n1` [Compound 188, {4-Methyl-5-[2-(4-morpholin-4-yl-phenylamino)-pyrimidin-4-yl]-thiazol-2-yl}-methanol], the IC50 in assay [1] was 3980 nM; in assay [2] it was 79.4 nM; in assay [4], 1580 nM.
For `CCOC(=O)N1CCN(c2ccc(Nc3nccc(-c4sc(C)nc4C)n3)cc2)CC1` [Compound 189, 4-{4-[4-(2,4-Dimethyl-thiazol-5-yl)-pyrimidin-2-ylamino]-phenyl}-piperazine-1-carboxylic acid ethyl ester], in that order: 2000 nM, 100 nM and 2000 nM.
For `Cc1nc(C)c(-c2ccnc(Nc3ccc(N4CCCCC4)cc3)n2)s1` [Compound 193, [4-(2,4-Dimethyl-thiazol-5-yl)-pyrimidin-2-yl]-(4-piperidin-1-yl-phenyl)-amine], the IC50 was 3980 nM in assay [1] and 200 nM in assay [2].
With `CCNc1nc(C)c(-c2ccnc(Nc3ccc(N4CCCCC4)cc3)n2)s1` [Compound 194, [4-(2-Ethylamino-4-methyl-thiazol-5-yl)-pyrimidin-2-yl]-(4-piperidin-1-yl-phenyl)-amine], the IC50 is 79.4 nM in assay [2] and 794 nM in assay [4].
The matching figures for `CCNc1nc(C)c(-c2ccnc(Nc3ccc(N4CCN(C)CC4)cc3)n2)s1` [Compound 196, [4-(2-Ethylamino-4-methyl-thiazol-5-yl)-pyrimidin-2-yl]-[4-(4-methyl-piperazin-1-yl)-phenyl]-amine]: 200 nM and 631 nM.
Regarding `COc1cc(Nc2nccc(-c3sc(CO)nc3C)n2)ccc1N1CCOCC1` [Compound 200, {5-[2-(3-Methoxy-4-morpholin-4-yl-phenylamino)-pyrimidin-4-yl]-4-methyl-thiazol-2-yl}-methanol], the IC50 was 39.8 nM in assay [2] and 2000 nM in assay [4].
As for `CCNc1nc(C)c(-c2ccnc(Nc3ccc(N4CCOCC4)c(C(N)=O)c3)n2)s1` [Compound 212, 5-[4-(2-Ethylamino-4-methyl-thiazol-5-yl)-pyrimidin-2-ylamino]-2-morpholin-4-yl-benzamide], the IC50 in assay [1] was 1260 nM; in assay [2], 63.1 nM; in assay [4], 1000 nM.
For the compound `Cc1nc(C)c(-c2ccnc(Nc3ccc(N4CCN(C(=O)C5CC5)CC4)cc3)n2)s1` [Compound 213, Cyclopropyl-(4-{4-[4-(2,4-dimethyl-thiazol-5-yl)-pyrimidin-2-ylamino]-phenyl}-piperazin-1-yl)-methanone], the values for the IC50 in assay [1], in assay [2] and in assay [4] were 2510 nM, 39.8 nM and 1580 nM, respectively.
For `COc1ccc(Nc2nccc(-c3sc(C)nc3C)n2)cc1CN1CCOCC1` [Compound 215, [4-(2,4-Dimethyl-thiazol-5-yl)-pyrimidin-2-yl]-(4-methoxy-3-morpholin-4-ylmethyl-phenyl)-amine], the IC50 is 200 nM in assay [2] and 1580 nM in assay [4].
